Measurements published in patent US9388126B2, “Sigma receptor ligands and methods of modulating cellular protein homeostasis using same” (Drexel University, priority 2012, dated 2016).
Read-outs that look alike come from different tables or passages of the source.

What was measured:
MDA-MB-468 cells [1] = assay: ER stress / UPR marker immunoblots; type: cell-based, human; conditions: for EC50: mean of two determinations
Method: Cells were lysed and proteins extracted in a modified RIPA buffer (25 mM Tris-HCl pH 7.6, 150 mM NaCl, 1% NP-40, 1% sodium deoxycholate and 0.1% SDS) supplemented with 10% glycerol (volume/volume), complete protease inhibitor cocktail (Roche), and Halt phosphatase inhibitor cocktail (Pierce). Approximately 10-20 μg of detergent soluble protein were resolved on NOVEX 10-20% polyacrylamide Tris-glycine gels (InVitrogen). Immunoblots were performed in a 20 mM Tris-buffered 137 mM saline solution (pH 7.6) containing 0.1% Tween-20 (polyoxyethylene (20) sorbitan monolaurate) and 5% (weight/volume) blotting grade non-fat dry milk (BioRad). The Lumigen PS-3 enhanced chemiluminescence kit (GE Healthcare) was used to reveal immunoblotted proteins.
Whether Sigma antagonists immediately induce autophagy or whether it is activated downstream of other cellular events was next examined. As Sigma1 is highly enriched in the ER, next examined was whether antagonist treatment could induce ER stress mediated UPR. Components of the IRE1α-JNK1/2 and eIF2α-ATF4 branches of the UPR as well as the UPR-associated ER chaperone, GRP78/BiP, were assayed as indicators of activated UPR.
All of the above-mentioned markers of ER stress were evaluated following treatment with increasing doses of Sigma ligands in order to compare UPR with the dose-responsive activation of autophagy. Sigma1 antagonist, IPAG, activated the UPR in a dose-responsive manner (FIG. 6).

[2] = system: MCF-7, T47D and MDA-MB-468 cells; assay: Cell proliferation by Alamar blue reduction, breast adenocarcinoma cultures; type: cell-based, human; conditions: after 4 days of treatment, six drug concentrations
Source text: In vitro cell proliferation was quantitated by Alamar blue reduction. The anti-proliferative effects of six drug concentrations of the indicated drugs were quantitated after 4 days of treatment.

[3] = system: MDA-MB-468 and MDA-MB-231 breast adenocarcinoma cells; assay: Poly-ubiquitylated protein immunoblot, breast adenocarcinoma cells; type: cell-based, human; conditions: 10 μM, up to 24 hours, MDA-MB-468
Method: FIG. 34A is an image of an immunoblot of MDA-MB-468 breast adenocarcinoma cells treated with 10 μM Sigma1 antagonist (IPAG) for the indicated times, up to 24 hours. Total cell lysates were resolved by SDS-PAGE and immunoblotted with a poly-ubiquitin antibody P4D1. FIG. 34B is an image of an immunoblot of HepG2 hepatocellular carcinoma cells treated for 20 hours with 10 μM of indicated Sigma1 ligands.
FIG. 59, comprising FIGS. 59A-59B, illustrates the finding that the novel Sigma1 ligand JMS-51-58 modulated the ubiquitin proteasome system. FIG. 59A is an image of an immunoblot evaluating the levels of poly-ubiquitylated proteins of MDA-MB-468 breast adenocarcinoma treated for 16 hours with 10 μM of JMS-51-58. FIG. 59B is an image of an immunoblot evaluating the levels of poly-ubiquitylated proteins of MDA-MB-231 breast adenocarcinoma cells treated for 16 hours with 10 μM of JMS-51-58. The levels of poly-ubiquitylated proteins were evaluated by immunoblot.

HER2/3 in SkBr-3 cells = assay: HER2 and HER3 level immunoblots; type: cell-based, human; conditions: 10 μM for 1-to-24 hours; 1, 3, 10, 20 μM for 12 hours
Source text: FIG. 67, comprising FIGS. 67A-67F, illustrates the finding that Sigma1 ligands may be used to modulate (in this case, decrease) the levels of growth factor receptors such as HER2 and HER3 in breast cancer cells, in the absence of detectable cell death. […] Short exposure to IPAG or lower dosage induces ubiquitin-mediated autophagosomal degradation of HER2/3. Prolonged IPAG treatment or higher dosage caused translational arrest. […] FIG. 67A is a set of immunoblots of HER2 following treatment with IPAG. Detergent soluble whole-cell lysates were solved by denaturing SDS-PAGE. (i) 1-to-24 hour (h) treatment with 10 μM IPAG or 11 μM thapsigargin (TG). (ii) Following 12 hour treatment with 1, 3, 10, 20 μM IPAG. FIG. 67B is a set of immunoblots of HER3 following treatment with IPAG. Detergent soluble whole-cell lysates were solved by denaturing SDS-PAGE. (i) 1-to-24 hour (h) treatment with 10 μM IPAG or 1 μM thapsigargin (TG). (ii) Following 12 hour treatment with 1, 3, 10, 20 μM IPAG. FIG. 67C is a set of immunoblots of detergent soluble whole-cell lysates solved by denaturing SDS-PAGE. […] (iii) Quantification of bands in (i). […] (ii) Quantification of HER3 band in DMSO (vehicle control) treated conditions. (iii) Quantification of HER3 band in IPAG treated conditions.

MDA-MB-468 cells [4] = assay: Alamar blue assay of bortezomib potentiation; type: cell-based, human; conditions: 10 μM IPAG with 0.01 μM bortezomib, 20 hours
Method: In vitro cell proliferation and cell death were quantified by Alamar blue reduction. To evaluate potentiation of proteasome inhibitor (bortezomib)-induced cell death by IPAG, MDA-MB-468 cells were treated for 20 hours with a 10 μM IPAG or 0.01 μM bortezomib alone or both drugs combined. Cell death was confirmed by trypan blue exclusion assay (data not shown). Data are representative of an experiment performed in triplicate.

Sigma1 = Sigma1 (Homo sapiens, UniProt Q99720); conditions: read-out: Ki, affinity for the Sigma1; cited from earlier work
Sequence of Sigma1 (Q99720 whole entry): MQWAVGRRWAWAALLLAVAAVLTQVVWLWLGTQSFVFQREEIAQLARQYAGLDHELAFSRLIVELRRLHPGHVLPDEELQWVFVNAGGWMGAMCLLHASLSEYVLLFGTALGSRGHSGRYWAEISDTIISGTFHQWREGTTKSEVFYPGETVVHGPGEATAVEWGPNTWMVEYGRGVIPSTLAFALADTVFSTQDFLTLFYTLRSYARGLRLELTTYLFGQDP

N=C(Nc1ccc(I)cc1)NC1C2CC3CC(C2)CC1C3 (stereo not shown) [IPAG, 1-(4-iodophenyl)-3-(2-adamantyl)guanidine]
activation of UPR markers at a dose that does not produce autophagosomes (MDA-MB-468 cells [1]; 1 μM, 24 hours): salient activation of at least seven markers of UPR
EC50 (MDA-MB-468 cells [1]; 24 hours, read-out: EC50 for phosphorylation of JNK (Thr183/Tyr185)): 1700 nM
EC50 (MDA-MB-468 cells [1]; Homo sapiens, MDA-MB-468, 24 h, read-out: EC50 for induction of ATF4): 500 nM
EC50 (MDA-MB-468 cells [1]; Homo sapiens, MDA-MB-468, 24 h, read-out: EC50 for induction of IRE1α): 900 nM
EC50 (MDA-MB-468 cells [1]; Homo sapiens, MDA-MB-468, 24 h, read-out: EC50 for phosphorylation of JNK (Thr183/Tyr185)): 1600 nM
EC50 (MDA-MB-468 cells [1]; Homo sapiens, MDA-MB-468, 24 h, read-out: EC50 for phosphorylation of eIF2α (Ser51)): 2300 nM
EC50 (MDA-MB-468 cells [1]; Homo sapiens, MDA-MB-468, 24 h, read-out: EC50 for phosphorylation of p38MAPK (Thr180/Tyr182)): 500 nM
EC50 (MDA-MB-468 cells [1]; Homo sapiens, MDA-MB-468, 24 hours, read-out: EC50 for induction of GRP78/BiP): 1400 nM
inhibition of cell proliferation [2]: inhibited cell proliferation with comparable potencies in all cell lines
levels of ubiquitylated proteins [3]: increased level of ubiquitylated proteins
levels of HER2/3 (HER2/3 in SkBr-3 cells): time and dose-dependently causes decreased levels of HER2/3
potentiation of bortezomib-induced cell death (MDA-MB-468 cells [4]): potentiates bortezomib-induced adenocarcinoma cell death
Ki (Sigma1): 5 ± 2 nM
